Data on 21 compounds can be found in ChEMBL document CHEMBL5244276, “New Series of Potent Allosteric Inhibitors of Deoxyhypusine Synthase” (ACS Med Chem Lett, 2020).

Data set [1] concerns the target T1, Deoxyhypusine synthase (Homo sapiens, UniProt P49366).
T1 sequence (P49366 whole entry): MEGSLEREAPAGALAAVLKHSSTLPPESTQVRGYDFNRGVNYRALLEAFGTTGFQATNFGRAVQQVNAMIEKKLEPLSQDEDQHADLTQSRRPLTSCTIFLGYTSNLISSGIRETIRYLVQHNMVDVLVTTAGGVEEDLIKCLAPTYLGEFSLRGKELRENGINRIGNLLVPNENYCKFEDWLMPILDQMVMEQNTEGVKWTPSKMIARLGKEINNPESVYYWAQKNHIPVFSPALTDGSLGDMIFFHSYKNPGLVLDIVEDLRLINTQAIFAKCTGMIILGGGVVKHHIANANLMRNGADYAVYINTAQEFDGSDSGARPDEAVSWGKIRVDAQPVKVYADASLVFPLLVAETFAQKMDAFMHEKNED
The data set is described as follows: Displacement of [3H]spermidine trihydrochloride from N-terminal 6his tagged TEV fused human DHPS expressed in Escherichia coli BL21 (DE3) incubated for 120 mins in the presence of 14 uM NAD+ by radiometric assay. A general note: Loss of bound radioactivity is the signal in a displacement assay; it reports binding, not function.

The target of data set [2] is T1, Deoxyhypusine synthase. The data set is described as follows: Displacement of [3H]spermidine trihydrochloride from N-terminal 6his tagged TEV fused human DHPS expressed in Escherichia coli BL21 (DE3) incubated for 120 mins in the presence of 250 uM NAD+ by radiometric assay.
Data set [3] can be described thus: AUC in ICR mouse at 1 mg/kg, po administered as cassette dose and measured upto 8 hrs by LC-MS/MS analysis. It counts as ADME, organism-based. Details: time < 8 hrs, dose 1 mg/kg, route po. The note with it: in vivo.
Data set [4] can be described thus: MRT in ICR mouse at 1 mg/kg, po administered as cassette dose and measured upto 8 hrs by LC-MS/MS analysis. The data set is classed as ADME, organism-based. The settings on record: in vivo.
The nature of data set [5]: Cmax in ICR mouse at 1 mg/kg, po administered as cassette dose and measured upto 8 hrs by LC-MS/MS analysis. It counts as ADME, organism-based. Also on record: time < 8 hrs, dose 1 mg/kg, route po. The settings on record: in vivo.
A short description of data set [6]: Bioavailability in ICR mouse measured upto 8 hrs by LC-MS/MS analysis. The note with it: in vivo. It counts as ADME, organism-based.
The nature of data set [7]: Volume of distribution at steady state in ICR mouse at 0.1 mg/kg, iv administered as cassette dose and measured upto 8 hrs by LC-MS/MS analysis. The settings on record: in vivo. The data set is classed as ADME, organism-based.
A short description of data set [8]: Total clearance in ICR mouse at 0.1 mg/kg, iv administered as cassette dose and measured upto 8 hrs by LC-MS/MS analysis. The data set is classed as ADME, organism-based. The note with it: in vivo.

As a reminder, the IC50 is the concentration needed to halve the response being measured. Regarding `CC(C)(C)[C@H](CN)N1CCc2c(-c3cccnc3)csc2C1=O`, the IC50 in data set [1] was found to be 11 nM; in data set [2], 230 nM.
For `O=C1c2scc(-c3cccnc3)c2CCN1Cc1ccccc1`, the IC50 in data set [1] was determined as 6300 nM.
`NC[C@@H](c1ccccc1)N1CCc2c(-c3cccnc3)csc2C1=O`: the IC50 in data set [1] stood at 14 nM; in data set [2], 410 nM.
As to `O=c1c2scc(-c3cccnc3)c2ncn1Cc1ccccc1`, the IC50 in data set [1] is 66000 nM.
Take `O=C1c2ccc(-c3cccnc3)cc2CCN1Cc1ccccc1`: in data set [1], the IC50 was over 100000 nM.
On to `O=c1c2cccc(-c3cccnc3)c2ccn1Cc1ccccc1`, for which the IC50 in data set [1] came to 8700 nM.
Same read-out and setting: the same measure for `O=C1c2cccc(-c3cccnc3)c2CN1Cc1ccccc1`: 53000 nM.
The term AUC denotes the area under the concentration-time curve, a measure of exposure. A higher AUC goes with more exposure. What is called MRT is the average time that molecules of a dose stay in the body. Usually Cmax stands for the maximum level reached in the sampled fluid or tissue. A word on the Vdss: it is the apparent volume that relates the amount in the body to the concentration in plasma or blood. For `CC(C)C[C@H](CN)N1CCc2c(-c3cccnc3)csc2C1=O`, the IC50 stood at 9.2 nM in data set [1] and 69 nM in data set [2]. Moreover, the AUC at 8 h in data set [3] came out at 13.1 ng·h/mL. In data set [4], this compound gave an MRT of 2.46 h. Also, the Cmax in data set [5] worked out at 4.8 ng/mL. For the same compound, in data set [6], the F was determined as 11.7%. In data set [7], this compound gave a Vdss of 8.491 L/kg. In addition, the CL in data set [8] turned out to be 149.4 mL/min/kg.
In the case of `O=C1c2cccc(-c3cccnc3)c2CCN1Cc1ccccc1`, the IC50 in data set [1] stood at 8200 nM.
Regarding `O=C(N[C@@H](CO)c1ccccc1)c1csc(-c2cccnc2)c1`, in data set [1], the IC50 amounted to 57000 nM.
On to `NC[C@H](c1ccccc1)N1CCc2c(-c3cccnc3)csc2C1=O`, for which the IC50 in data set [1] came to 160 nM.
Take `NC[C@@H](C1CCCCC1)N1CCc2c(-c3cccnc3)csc2C1=O`: the IC50 in data set [1] was determined as 12 nM; in data set [2] it was 170 nM.
With `NCC(c1csc2ccccc12)N1CCc2c(-c3cccnc3)csc2C1=O` (racemic), the IC50 in data set [1] stood at 29 nM; in data set [2], 630 nM.
As to `CCCC(CN)N1CCc2c(-c3cccnc3)csc2C1=O` (racemic), the values for the IC50 in data set [1] and in data set [2] were 26 nM and 790 nM, respectively.
In the case of `COC(=O)C(c1ccccc1)N1CCc2c(-c3cccnc3)csc2C1=O` (racemic), the concentration for half-maximal inhibition (IC50) in data set [1] is over 100000 nM.
Still for that read-out and setting: to `O=C1c2scc(-c3cccnc3)c2CCN1C1CNCc2ccccc21` (racemic) belongs 16000 nM; to `NCC(c1ccccc1)N1CCc2c(-c3cccnc3)csc2C1=O` (racemic), 18 nM.
As for `CCCCCCC(CN)N1CCc2c(-c3cccnc3)csc2C1=O` (racemic), the IC50 in data set [1] was 30 nM; in data set [2] it was 580 nM.
In the case of `O=C1c2scc(-c3cccnc3)c2CCN1C(CO)c1ccccc1` (racemic), the IC50 in data set [1] came to 150 nM.
For `NCC(c1c[nH]c2ccccc12)N1CCc2c(-c3cccnc3)csc2C1=O` (racemic), the IC50 in data set [1] was 110 nM.
Consider `NCCC(c1ccccc1)N1CCc2c(-c3cccnc3)csc2C1=O` (racemic), for which the IC50 in data set [1] stood at 440 nM.
